Measurements taken from patent US20240366784A1, “INJECTABLE HYDROGEL COMPOSITIONS AND METHODS OF USE THEREOF” (Drexel University, priority 2023, published 2024).

Assays:
[1] = typically reported; cited from earlier work
RAW264.7 cells = experiment: qPCR transcriptional analysis of zymosan-activated RAW264.7 macrophages; type: cell-based, murine; settings: zymosan 100 μg/mL, drug 1 μM, 24 hrs
Protocol: For secondary identification of M2-promoting drugs, transcriptional analysis using qPCR was performed. RAW264.7 cells were plated at 1×10^6 cells/well in 24 well plates. After 24 h, media was replaced, and IL-4 (10 ng/mL, PeproTech) or zymosan (100 μg/mL) were included to serve as internal controls for M2-like and M1-like phenotypes, respectively. Treatment groups were concurrently activated via zymosan and treated with 1 μM drug concentrations, n=3 per group. After 24 hrs, cells were lysed by freezing, RNA was extracted (RNEasy Mini Kit; Qiagen), and cDNA synthesis was performed (High-Capacity cDNA Reverse Transcription Kit; Fisher). Samples were subject to qPCR using Taqman Fast Advanced Master Mix and probes (Fisher) for analysis of hprt (Mm01545399_m1), nos2 (Mm00440502_m1), il12b (Mm01288989_m1), il6 (Mm00446190_m1), mrc1 (Mm00485148_m1), il10 (Mm01288386_m1), and arg1 (Mm00475988_m1). Data is expressed as a fold change in gene expression using the ΔΔCt method, relative to the hprt and zymosan-treated controls.

[2] = test system: Bone marrow derived macrophages (BMDMs); experiment: nanoString gene expression analysis in zymosan-activated bone marrow derived macrophages; type: cell-based, mouse; settings: zymosan 100 μg/mL, drug 1 μM, 24 hrs, 91-gene panel
Protocol: Cells were maintained under standard culture conditions (37° C., 5% CO2) in the indicated medium which was replenished every two days. The murine MF cell lines, RAW 264.7 (ATCC) and RAW-Blue™ (InvivoGen), were cultured in Dulbecco's Modified Eagle Medium (DMEM) supplemented with heat-inactivated fetal bovine serum (FBS), and 1% penicillin-streptomycin (Pen-Strep). RAW-Blue™ media was additionally supplemented by 100 μg/ml Normocin with the addition of 100 μg/ml of Zeocin every other passage to maintain selection pressure, as recommended by the manufacturer. Cells were passaged at 70% confluency. Primary MF were derived from murine and human tissues. Bone marrow derived macrophages (BMDMs) were isolated and derived according to standard protocols. Marrow was extracted from the surgically resected femur and tibia of male C57BL/6 mice, dissociated, and filtered using a 40 μm strainer. Red blood cells were lysed with ammonium chloride, and recovered cells were plated at 2×10^6 cells/well in 24 well plates and maintained in Iscove's Modification of DMEM (IMDM) supplemented with 10% heat-inactivated FBS, 1% Pen-Strep, and 10 ng/mL recombinant mouse macrophage colony-stimulating factor (M-CSF; PeproTech). Primary human monocytes were isolated from peripheral blood (New York Blood Center) from a single healthy human donor via density centrifugation as previously described in the literature. […]

SMILES	Keq of polyaromatic guests with CD [1]	change in il12b expression among six selected drugs (RAW264.7 cells)	change in mrc1 and il10 expression among six selected drugs (RAW264.7 cells)	expression of M1-like genes (nos2, il6, il12b) (RAW264.7 cells; qPCR)	expression of M2-like genes (mrc1, arg1, il10) (RAW264.7 cells; qPCR)	cluster analysis of macrophage phenotype [2]
N[C@@H](Cc1c[nH]c2ccccc12)C(=O)O [tryptophan]	single micromolar	–	–	–	–	–
COc1ccc(C(=O)Nc2c(Cl)cncc2Cl)cc1OC1CCCC1 [piclamilast]	–	greatest decrease	greatest increase	significantly downregulated	upregulation	intermediate to M1 and M2 control phenotypes
COc1cccc2c1C(=O)c1c(O)c3c(c(O)c1C2=O)C[C@@](O)(C(=O)CO)C[C@@H]3O[C@H]1C[C@H](N)[C@H](O)[C@H](C)O1 [doxorubicin]	single micromolar	–	–	–	–	–
